The text below walks through data of BindingDB's records for doi:10.1016/s0960-894x(99)00335-2 (Merck Research Laboratories, 1999).

The test in a line: Concentration required for inhibition of serine/threonine protein phosphatase calcineurin (CAN).

Each structure is given as a SMILES string. pIC50: −log10 of the molar value.

For orientation: pIC50 means −log10 of the IC50, conventionally taken in molar units. For the compound `CC[C@@H]1/C=C(\C)C[C@H](C)C[C@H](OC)[C@H]2O[C@@](O)(C(=O)C(=O)N3CCCC[C@H]3C(=O)O[C@H](/C(C)=C/[C@@H]3CC[C@@H](OCCc4ccccc4)[C@H](OC)C3)[C@H](C)[C@@H](O)CC1=O)[C@H](C)C[C@@H]2OC` [C32-O-Phenalkyl ether derivative of Ascomycin], the negative-log IC50 (pIC50) is 8.14.

As to `CC[C@@H]1/C=C(\C)C[C@H](C)C[C@H](OC)[C@H]2O[C@@](O)(C(=O)C(=O)N3CCCC[C@H]3C(=O)O[C@H](/C(C)=C/[C@@H]3CC[C@@H](OCCCc4ccccc4)[C@H](OC)C3)[C@H](C)[C@@H](O)CC1=O)[C@H](C)C[C@@H]2OC` [C32-O-Phenalkyl ether derivative of Ascomycin], the negative logarithm of the IC50 (pIC50) is 7.85.
